Measurements published in patent publication US12075776B2, “Synthetic lures” (VICTORIA LINK LIMITED, priority 2016, dated 2024).

Key:
Type in all cases: in vivo
wild, free-ranging rats [1] = assay: Model selection / model averaging of blend-trial response variables (Visitation, Contact, Marking, Intensity); conditions: response variable Intensity (footprint squares); Phase removed as random effect
wild, free-ranging rats [2] = assay: as above; conditions: for relative importance of variable (model averaging), Contact: response variable Contact (chew or bite marks); for relative importance of variable (model averaging), Marking: response variable Marking (urination and/or faecal marking); for relative importance of variable (model averaging), Visitation: response variable Visitation (tracking), presence/absence of compound in lure as predictor
Text: (§1) Trials were designed to compare the performance of each lure relative to the best performing lure after each successive trial phase. The elimination of poorer performing lures allowed for higher levels of internal replication and the inclusion of additional multi-component blend lures to Phase Two. Lures were scored using the presence/absence of rat tracks on inked tracking cards to provide a proportion of tracking cards receiving species-specific visitations and hereafter termed the ‘tracking rate’. The tracking rate was used to direct the elimination process. Lures that were statistically less attractive than the best performing lure after Phase One trials were eliminated from subsequent trials. Three behavioural response variables were scored that were designed to quantify the strength of the visit to the respective lure: (1) the presence of urination and/or faecal marking in or on the tracking tunnel and hereafter termed ‘Marking’; (2) the presence of chew or bite marks on the microtube and/or tracking tunnel and hereafter termed ‘Contact’ and; (3) the amount of footprints on each tracking card that received a visitation. This was measured using a 10 cm×47 cm Perspex sheet with a grid made up of 1 cm^2 squares. The number of squares with species-specific tracks was calculated to provide a score, hereafter termed ‘Intensity’. Intensity was designed to identify lures that generated intensive or multiple visits by an individual or that elicited visits from multiple individuals.
A multi-model information-theoretic approach was used at the end of Phase Two to identify the models of best fit for each of the four response variables (Tracking, Marking, Contact and Intensity) and to investigate possible synergistic effects between compounds used in multi-component blends. Data for each lure comprising one or any combination of A6, B6, C6, F7 and/or 17 were collated. Model averaging was used to identify each compounds relative importance to each response variable.
Binomial tests were used to compare the performance of each lure to the best performing lure at the end of each in-field trial phase and drive the process. Tracking, Marking and Contact models were run as generalised linear mixed-effects models (GLMM) with a binomial distribution and logit link and a linear mixed-effects model (LMM) for Intensity. The presence/absence of compounds in each lure were used as predictor variables.
A ‘Global’ model was firstly generated containing all fixed-effect parameters, with ‘Site’ and/or ‘Transect’ and/or ‘Trial Phase” included as random effects. This allowed for the examination of both spatial (Site and Transect) and temporal (Trial Phase) impacts on the data. ‘Transect’ nested within ‘Site’ and ‘Trial Phase’ provided an improved model fit compared to any other random effect model, therefore all models were run with the inclusion of ‘Transect’ nested within ‘Site’ and ‘Trial Phase” as random effects. Akaike's information criterion corrected for small sample size (AICc) was used to compare models. Corresponding Akaike differences (Δi), the number of parameters (K), Akaike weights (Wi) and log-likelihoods (LL) were also calculated. As the model set was not balanced i.e., there were not equal numbers of models for each variable a cut-off of 10AICC was used (Bolker et al. 2009) to create the model averaging candidate model-sets from the relative importance of variables were derived. Correlations between the response variables used in linear regression models were examined using Dice's similarity coefficient (QS) due to the binary nature of three of the four variables (Choi et al. 2010).
Statistical significance was assumed wherever P≤0.05. All statistical analysis was run in R (R Core Team 2016), with package Ime4 (Bates et al. 2015) used for mixed-effects models and MuMIn (Barton 2016) used for AICc scores, weights, deltas, log-likelihoods and model averaging (using the dredge function).

wild, free-ranging rats [3] = assay: Field trials of single-compound synthetic lures in tracking tunnels (tracking rate); conditions: for attractiveness relative to peanut butter standard and control (aggregated tracking rate): tracking rate aggregated for all seven concentrations 10,000 to 0.01 ppm in fractionated coconut oil, one night, FIG. 2
Description: Synthetic lures comprising a single compound mixed in a carrier medium (fractionated coconut oil) were presented to wild, free-ranging rats at 7 concentrations, decreasing in orders of magnitude from 10,000 ppm to 0.01 ppm. The compounds and concentrations used are set out in Table 2. Lures were presented in 1.7 mL Eppendorf microtubes secured to the inside wall of tracking tunnels using a cable tie. Inked cards were placed in each tunnel to quantify the visitation and identity of species visiting lures. Lures were randomly assigned along transects, with a minimum 25-m spacing between lures and with transects separated by 200 m. A control (fractionated coconut oil only) and standard (peanut butter) were assigned to each transect, with each transect comprising of lures presented at the same concentration. The order of transects was randomised for each trial. All lures were left in situ for one rain-free night. Lures were scored using the presence of rat tracks on inked cards to provide a proportion of inked cards receiving a visit for each lure, hereafter termed the “tracking rate”. Binomial tests were used to compare the tracking rate of each individual lure against peanut butter at the end of the trial period. Binomial tests were run in R (R Core Team 2013). Ten trials were undertaken at independent sites across the Wainuiomata and Orongorongo catchment region and within the Akatarawa and Pakuratahi Forest Parks, Wellington region (41° 15S, 175° 00E), New Zealand between 15 Jul. 2015 and 11 Nov. 2015.

wild, free-ranging rats [4] = assay: Blend trials (Phase One and Phase Two) of single and multi-component lures in tracking tunnels; conditions: Phase One; for performance versus top performing lure CF (binomial test): P<0.03
Text: Lure preparation and presentation methods followed those outlined above.
For Phase One, A6, B6, C6, F7 and 17 identified as in Table 2 were presented. For example, A6 and B6 were blended together in equal parts to make a dyad lure coded AB. Each trial consisted of a single spatially stratified transect. Each strata contained one of each lure, a control (FCO) and the standard (peanut butter). The number of transect strata varied between trials according to site conditions i.e., track length and accessibility. Lures were spaced at 50 m, with the order of lures randomised within transect strata and between each trial. All lures were left in situ for two rain-free night. Ten trials were undertaken at independent sites across the Greater Wellington region and Richmond Range, Nelson, New Zealand between 11 Nov. 2015 and 25 Feb. 2016.
For Phase Two, the best performing single and dyad lures identified after Phase One were presented. In addition, all possible triad, tetrad and pentad blend combinations of A, B, C, F and I were created and trialled. […]
as §1, with “The elimination of poorer performing lures allowed for higher levels of internal replication and the inclusion of additional multi-component blend lures to Phase Two.” left out, “The tracking rate was used to direct the elimination process. Lures that were statistically less attractive than the best performing lure after Phase One trials were eliminated from subsequent trials.” left out, “Intensity was designed to identify lures that generated intensive or multiple visits by an individual or that elicited visits from multiple individuals.” left out

Row | Structure (SMILES) | relative importance of variable (model averaging), Intensity (wild, free-ranging rats [1]) | relative importance of variable (model averaging), Contact (wild, free-ranging rats [2]) | relative importance of variable (model averaging), Marking (wild, free-ranging rats [2]) | relative importance of variable (model averaging), Visitation (wild, free-ranging rats [2]) | attractiveness relative to peanut butter standard and control (aggregated tracking rate) (wild, free-ranging rats [3]) | performance versus top performing lure CF (binomial test) (wild, free-ranging rats [4]) | tracking rate (wild, free-ranging rats [4]; 10 sites, n=30 per lure, two nights, summer months) | trend of attraction with concentration (wild, free-ranging rats [3]; seven concentrations 10,000 to 0.01 ppm)
1 | CC(C)CCO [A, isoamyl alcohol] | 0.85 | 0.68 | 0.95 | 0.69 | more attractive than the peanut butter standard | – | – | –
2 | CCCCCCO [B, 1-hexanol] | 0.89 | 0.50 | 0.95 | 0.90 | more attractive than the peanut butter standard | statistically weaker | – | –
3 | CC(=O)C(C)O (stereo not drawn) [C, acetoin] | 0.94 | 0.50 | 0.96 | 0.58 | more attractive than the peanut butter standard | – | 0.20 | –
4 | CC(C)CC(=O)O [D, Isopentanoic acid] | – | – | – | – | less attractive than the peanut butter standard and the control | – | – | –
5 | Cc1nccnc1C [E, 2,3-dimethylpyrazine] | – | – | – | – | less attractive than the peanut butter standard and the control | – | – | –
6 | CC(=O)OCC(C)C [F, isobutyl acetate] | 0.86 | 0.78 | 0.987 | 0.70 | more attractive than the peanut butter standard | statistically weaker | – | –
7 | CC(=O)OCCC(C)C [G, Isopentyl acetate] | – | – | – | – | less attractive than the peanut butter standard and the control | – | – | no trend
8 | Cc1nc(C)c(C)nc1C [H, Tetramethylpyrazine] | – | – | – | – | less attractive than the peanut butter standard but more attractive than the control | – | – | –
9 | CCC(C)COC(C)=O (stereo not drawn) [I, 2-methylbutyl acetate] | 0.88 | 0.48 | 0.95 | 0.84 | more attractive than the peanut butter standard | – | – | –
